Earlier results in US8945526B2, “Amphiphilic substance, and drug delivery system and molecular imaging system using the same” (Shimadzu Corporation, priority 2006, dated 2015).

Conditions: ICG singly administered

Compound: CC1(C)C(/C=C/C=C/C=C/C=C2\N(CCCCS(=O)(=O)O)c3ccc4ccccc4c3C2(C)C)=[N+](CCCCS(=O)(=O)[O-])c2ccc3ccccc3c21 [ICG, indocyanine green]
- removal from the body: removed from a body in one hour
